Experimental data published in ChEMBL document CHEMBL1201862, “PubChem BioAssay data set” (2004).
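Method: 48-hour compound exposure of cells in 96-well plates, five concentrations, linear interpolation of endpoints. The concentration for 50% growth inhibition is given as GI50.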 The source made the active and inactive calls. Cut-off read from the data, not from the text of the source: active = GI50 up to about 1.1 µM and inactive = higher.

Columns and labels:
Assay in all cases: NCI-60 cell line screen, 48 h
[1] = test system: SF-539
[2] = test system: A549
[3] = test system: Hs-578T
[4] = test system: PC-3
[5] = test system: OVCAR-3
[6] = test system: ACHN
[7] = test system: UO-31
[8] = test system: HCT-15
[9] = test system: NCI-H23
[10] = test system: OVCAR-8
[11] = test system: SF-268
[12] = test system: HOP-92
[13] = test system: U-251
[14] = test system: SF-295
[15] = test system: SK-OV-3
[16] = test system: A498
[17] = test system: HCC 2998
[18] = test system: UACC-62
[19] = test system: HL-60

Structure (SMILES): CCC(=O)O[C@H]1CC[C@H]2[C@@H]3CCC4=C/C(=N/OC(=O)c5cccc6c(=O)c7ccccc7[nH]c56)CC[C@]4(C)[C@H]3CC[C@]12C
- GI50 [1]: 20.6 µM (inactive)
- GI50 [2]: 43.5 µM (inactive)
- GI50 [3]: 22.4 µM (inactive)
- GI50 [4]: 26.9 µM (inactive)
- GI50 [5]: 18.3 µM (inactive)
- GI50 [6]: 47.9 µM (inactive)
- GI50 [7]: 26.4 µM (inactive)
- GI50 [8]: 21.3 µM
- GI50 [9]: 51.3 µM (inactive)
- GI50 [10]: 29.9 µM (inactive)
- GI50 [11]: 38.5 µM (inactive)
- GI50 [12]: 30.8 µM (inactive)
- GI50 [13]: 25.6 µM (inactive)
- GI50 [14]: 29.9 µM (inactive)
- GI50 [15]: > 100 µM (inactive)
- GI50 [16]: 27.1 µM (inactive)
- GI50 [17]: 21.3 µM (inactive)
- GI50 [18]: 28.8 µM (inactive)

Structure (SMILES): COc1cc(C2c3cc4c(cc3OC(NNS(=O)(=O)c3ccc(C)cc3)C2C)OCO4)cc(OC)c1O (configuration not stated)
- GI50 [1]: 6.53 µM (inactive)
- GI50 [2]: 11.7 µM (inactive)
- GI50 [3]: 16.9 µM (inactive)
- GI50 [4]: 3.87 µM (inactive)
- GI50 [5]: 13.7 µM (inactive)
- GI50 [6]: 7.98 µM (inactive)
- GI50 [8]: 8.32 µM
- GI50 [9]: 9.89 µM (inactive)
- GI50 [10]: 6.82 µM (inactive)
- GI50 [11]: 14.8 µM (inactive)
- GI50 [12]: 14.5 µM (inactive)
- GI50 [19]: 9.33 µM (inactive)
- GI50 [13]: 8.17 µM (inactive)
- GI50 [14]: 3.52 µM (inactive)
- GI50 [15]: 11.3 µM (inactive)
- GI50 [16]: 7.98 µM (inactive)
- GI50 [17]: 23.7 µM (inactive)
- GI50 [18]: 15.2 µM (inactive)

Structure (SMILES): CC(C)c1nc(Cl)nc(Cl)c1Cl
- GI50 [1]: 0.515 µM (active)
- GI50 [2]: 1.58 µM (inactive)
- GI50 [3]: 0.302 µM (active)
- GI50 [4]: 0.401 µM (active)
- GI50 [5]: 0.142 µM (active)
- GI50 [6]: 0.264 µM (active)
- GI50 [7]: 0.0711 µM (active)
- GI50 [8]: 0.279 µM
- GI50 [9]: 0.474 µM (active)
- GI50 [10]: 0.436 µM (active)
- GI50 [11]: 1.16 µM (inactive)
- GI50 [12]: 0.0233 µM (active)
- GI50 [19]: 0.0125 µM (active)
- GI50 [13]: 0.61 µM (active)
- GI50 [14]: 2.82 µM (inactive)
- GI50 [15]: 4.58 µM (inactive)
- GI50 [16]: 3.27 µM (inactive)
- GI50 [17]: 0.948 µM (active)
- GI50 [18]: 0.266 µM (active)

Structure (SMILES): CC(C)(Cc1ccccc1)NC1=NCCO1
- GI50 [1]: > 100 µM (inactive)
- GI50 [2]: > 100 µM (inactive)
- GI50 [3]: 76.4 µM (inactive)
- GI50 [4]: > 100 µM (inactive)
- GI50 [5]: > 100 µM (inactive)
- GI50 [6]: > 100 µM (inactive)
- GI50 [7]: > 100 µM (inactive)
- GI50 [8]: > 100 µM
- GI50 [9]: > 100 µM (inactive)
- GI50 [10]: > 100 µM (inactive)
- GI50 [12]: > 100 µM (inactive)
- GI50 [19]: > 100 µM (inactive)
- GI50 [13]: > 100 µM (inactive)
- GI50 [14]: > 100 µM (inactive)
- GI50 [15]: > 100 µM (inactive)
- GI50 [16]: > 100 µM (inactive)
- GI50 [17]: > 100 µM (inactive)
- GI50 [18]: > 100 µM (inactive)

Structure (SMILES): FC(F)(F)c1ccc2c(c1)nc(-c1ccc(Cl)cc1)n2CC1CCCN2CCCCC12 (configuration not stated)
- GI50 [1]: 14.8 µM (inactive)
- GI50 [2]: 14.8 µM (inactive)
- GI50 [3]: 14 µM (inactive)
- GI50 [4]: 11.6 µM (inactive)
- GI50 [5]: 18.4 µM (inactive)
- GI50 [6]: 14.8 µM (inactive)
- GI50 [7]: 10.7 µM (inactive)
- GI50 [8]: 14.4 µM
- GI50 [10]: 15.6 µM (inactive)
- GI50 [11]: 14 µM (inactive)
- GI50 [12]: 12.8 µM (inactive)
- GI50 [19]: 11.8 µM (inactive)
- GI50 [13]: 14.2 µM (inactive)
- GI50 [14]: 16.7 µM (inactive)
- GI50 [15]: 6.7 µM (inactive)
- GI50 [16]: 14.2 µM (inactive)
- GI50 [17]: 13.5 µM (inactive)
- GI50 [18]: 14.8 µM (inactive)

Structure (SMILES): CC(=O)O[C@H]1C(=O)[C@@]2(C)[C@H]([C@H](OC(=O)c3ccccc3)[C@]3(O)C[C@H](OC(=O)[C@H](O)[C@@H](NC(=O)CC(C)C)c4ccccc4)C(C)=C1C3(C)C)[C@]1(OC(C)=O)CO[C@@H]1C[C@@H]2O
- GI50 [1]: 0.00204 µM (active)
- GI50 [2]: 0.00637 µM (active)
- GI50 [3]: 0.0018 µM (active)
- GI50 [4]: 0.00281 µM (active)
- GI50 [6]: 0.157 µM (active)
- GI50 [7]: 2.48 µM (inactive)
- GI50 [8]: 0.547 µM
- GI50 [9]: 0.00321 µM (active)
- GI50 [10]: 0.00548 µM (active)
- GI50 [11]: 0.00486 µM (active)
- GI50 [12]: 0.508 µM (active)
- GI50 [19]: 0.00111 µM (active)
- GI50 [13]: 0.00879 µM (active)
- GI50 [14]: 0.0445 µM (active)
- GI50 [15]: 0.00433 µM (active)
- GI50 [16]: 0.247 µM (active)
- GI50 [17]: 0.00303 µM (active)
- GI50 [18]: 0.00475 µM (active)

Structure (SMILES): O=C1OC(C2OC(=O)c3cc(O)c(O)c(O)c3-c3c(O)c(O)c4oc(=O)c5c(c(O)c(O)c6oc(=O)c3c4c65)-c3c(cc(O)c(O)c3O)C(=O)OCC2O)C2OC(=O)c3c(c(O)c(O)c(O)c3[C@H]2O)-c2c1cc(O)c(O)c2O (some centres not stated)
- GI50 [2]: 20.2 µM (inactive)
- GI50 [3]: 38.6 µM (inactive)
- GI50 [4]: 36.4 µM (inactive)
- GI50 [5]: 24.4 µM (inactive)
- GI50 [6]: 24.7 µM (inactive)
- GI50 [7]: 16.4 µM (inactive)
- GI50 [8]: 13.2 µM
- GI50 [9]: 16.6 µM (inactive)
- GI50 [10]: 20.2 µM (inactive)
- GI50 [11]: 24.7 µM (inactive)
- GI50 [12]: 18.3 µM (inactive)
- GI50 [19]: 13.7 µM (inactive)
- GI50 [13]: 20.9 µM (inactive)
- GI50 [14]: 16.6 µM (inactive)
- GI50 [15]: 59.7 µM (inactive)
- GI50 [16]: > 100 µM (inactive)
- GI50 [17]: 43.6 µM (inactive)
- GI50 [18]: 22.9 µM (inactive)
